In patent publication US4314055A, “3,5-Disubstituted-2,4,6-triiodoanilides of polyhydroxy-monobasic acids” (Mallinckrodt, Inc., priority 1977, dated 1982):
Converted amounts (≈) assume the structure as drawn. Like-named read-outs stand apart in the source and are kept apart here.

Tests used:
Swiss Albino mice [1] = assay: Intracerebral Toxicity in Mice; assay type: in vivo, mouse (Swiss Albino, Charles River)
Procedure: (§1) Toxicity evaluations in accordance with three different techniques were carried out on aqueous solutions of the compounds of Examples I, II, IV, V, VI, VIII, IX, X, XI and XII. The techniques utilized are described below.
2. Intracerebral Toxicity in Mice
Swiss Albino mice (Charles River) were used. Fixed volumes of aqueous solutions of the iodinated compounds were injected intracerebrally via a 27-gauge needle (1/4 inch in length) according to the method of Haley et al. (Br. J. of Pharmac. 12:12-15, 1957). Again in the case of the compounds of Examples I, II and VI, supersaturated solutions were employed. In the case of the compound of Examples VIII and IX, solutions having an iodine concentration of 35% and 42%, respectively, were employed and in the case of the compound of Example X, a solution having an iodine concentration of 40% was employed. The animals were observed immediately following injections and daily throughout a seven day observation period. The LD50 values were calculated by the method of Litchfield and Wilcoxon (J. of Pharmac. and Exptl. Therap. 96:99-113, 1949).

dog [2] = assay: tested as a bronchographic agent in a dog; assay type: in vivo
Procedure: (§2) The compound of Example I was tested as a bronchographic agent in a dog with good results. The compound of Example II was employed in intravenous pyelographic studies carried out in dogs. At a dosage of 250 mg. […] At a dosage of 350 mg. […] At a dosage of 350 mg. […] At a dosage of 190 mg. […] The compound of Examples VIII and IX was employed in intrathecal myelographic studies carried out in dogs. At dosages of 282 to 2400 mg. […] The compound of Examples VIII and IX was employed in intracisternal toxicity studies carried out in dogs using the cisterna magna as the route of administration. At a dosage of 1410 mg. […] The compound of Example X was employed in intravenous pyelographic studies carried out in rats. At a dosage of 500 mg. […] At a dosage of 70 mg. […] In a separate study, the compound of Examples XI and XII was administered to dogs by intraspinal administration at a dosage of 70 mg. I/kg.

Swiss Albino mice [3] = assay: Acute Intravenous Toxicity Studies in Mice; assay type: in vivo, mouse (Swiss Albino, Charles River)
Procedure: as §1
1. Acute Intravenous Toxicity Studies in Mice
Except as noted below, Swiss Albino mice (Charles River) were dosed in the lateral tail vein with solutions of the above-noted iodinated compounds having an iodine concentration of 28.2% with a pH of 7.0-7.2. The solutions were injected at the rate of approximately 1 ml./min. In the case of the compound of Examples I, II and VI, supersaturated solutions having an iodine concentration of 10%, 28% and 28%, respectively, were employed. […] The LD50 values were calculated by the method of Litchfield and Wilcoxon (J. of Pharmac. and Exptl. Therap. 96:99-113, 1949).

[4] = test system: Sprague-Dawley (Carworth) rats; assay: Intracisternal Toxicity in Rats; assay type: in vivo, rat (Sprague-Dawley; conditions: two day observation
Procedure: as §1
3. Intracisternal Toxicity in Rats
Sprague-Dawley (Carworth) rats were used. The method used was a variation of the procedure outlined by Melartin et al. (Invest. Rad. 5:13-21, 1970). In the case of the compound of Examples VIII and IX, solutions having an iodine concentration of 35% and 40%, respectively, were employed and in the case of the compound of Example X, a solution having an iodine concentration of 40% was employed. After dosing, the animals were housed individually and observed for immediate reactions and periodically for a two day observation period. The LD50 values were calculated according to the method of Litchfield and Wilcoxon (J. of Pharmac. and Exptl. Therap. 96:99-115, 1949).

water solubility = assay type: physicochemical
Procedure: A 15% w/v solution was prepared, seeded and stirred at room temperature.

dogs [5] = assay: intravenous pyelographic studies in dogs; assay type: in vivo, dog; conditions: 250 mg. I/kg.
Procedure: as §2

dog [6] = assay: urinary tract visualization after injection into a dog; assay type: in vivo
Procedure: as §2

rats = assay: intravenous pyelographic studies in rats; assay type: in vivo, rat; conditions: 500 mg. I/kg.
Procedure: as §2

dogs [7] = assay: intracisternal toxicity studies in dogs (cisterna magna route); assay type: in vivo, dog; conditions: 1410 mg. I/kg.
Procedure: as §2

dogs [8] = assay: intrathecal myelographic studies in dogs; assay type: in vivo, dog
Procedure: as §2

dogs [9] = assay: radiographs after intraspinal administration to dogs; assay type: in vivo, dog; conditions: 70 mg. I/kg.
Procedure: as §2

[10] = supersaturated solution, seven day observation
[11] = water, read-out: water solubility
[12] = supersaturated solution, iodine concentration 28%
[13] = fixed volumes of aqueous solutions, seven day observation
[14] = iodine concentration 28.2%, pH 7.0-7.2, approx. 1 ml./min., seven-day observation
[15] = water, initially, read-out: solubility, initial

CNC(=O)c1c(I)c(NC(=O)[C@H](O)[C@@H](O)[C@H](O)[C@H](O)CO)c(I)c(C(=O)NC)c1I [Example I, 5-D-Gluconamido-2,4,6-triiodo-N,N'-dimethylisophthalamide]
LD50 Value Intracerebral (Mice) (Swiss Albino mice [1]; [10]): > 750 mg. I/kg. body wt.
bronchographic agent test result (dog [2]): good results
LD50 Value I.V. (Mice) (Swiss Albino mice [3]; supersaturated solution, iodine concentration 10%): > 10,000 mg. I/kg. body wt.
LD50 Value Intracisternal (Rats) [4]: > 150 mg. I/kg. body wt.
solubility (water solubility; [11]): 12 mg/mL (≈ 15.7 mM)

CNC(=O)c1c(I)c(NC(=O)[C@H](O)[C@@H](O)[C@H](O)[C@H](O)CO)c(I)c(C(=O)N(C)C)c1I [Example II, 5-D-Gluconamido-2,4,6-triiodo-N,N,N'-trimethylisophthalamide]
ureters and urinary bladder visualization (dogs [5]; five minutes after injection): the ureters and urinary bladder were visible
kidney visualization (dogs [5]; one minute after injection): kidney shadows were observed
LD50 Value Intracerebral (Mice) (Swiss Albino mice [1]; [10]): 2,350 mg. I/kg. body wt.
LD50 Value I.V. (Mice) (Swiss Albino mice [3]; [12]): 8,085 mg. I/kg. body wt.
LD50 Value Intracisternal (Rats) [4]: 100 mg. I/kg. body wt.
solubility (water solubility; [11]): 284 mg/mL (≈ 365 mM)

CNC(=O)c1c(I)c(NC(=O)[C@H](O)[C@@H](O)[C@H](O)[C@H](O)CO)c(I)c(N(C)C(C)=O)c1I [Example IV, 3-D-Gluconamido-2,4,6-triiodo-N-methyl-5-(N-methylacetamido)-benzamide]
LD50 Value Intracerebral (Mice) (Swiss Albino mice [1]; [13]): 1,175 mg. I/kg. body wt.
urinary bladder visualization (dog [6]; 350 mg. I/kd. (so in the source), 40 minutes after injection): gave a shadow of the urinary bladder
LD50 Value I.V. (Mice) (Swiss Albino mice [3]; [14]): 6,400 mg. I/kg. body wt.
LD50 Value Intracisternal (Rats) [4]: 75 mg. I/kg. body wt.
solubility (water solubility; [11]): ≥ 1000 mg/mL

CNC(=O)c1c(I)c(C(=O)N(C)C)c(I)c(N(C)C(=O)[C@@H](O)[C@H](O)[C@H](O)[C@@H](O)C=O)c1I [Example V, 2,4,6-triiodo-N,N,N'-trimethyl-5-(N-methyl-D-galacturonamido)-isophthalamide]
LD50 Value Intracerebral (Mice) (Swiss Albino mice [1]; [13]): 1,700 mg. I/kg. body wt.
kidney and ureter visualization (dog [6]; 350 mg. I/kg., 5 minutes after injection): gave a kidney shadow with partial visualization of the ureters
LD50 Value I.V. (Mice) (Swiss Albino mice [3]; [14]): 1,700 mg. I/kg. body wt.
LD50 Value Intracisternal (Rats) [4]: 28 mg. I/kg. body wt.
solubility (water solubility; [11]): ≥ 1000 mg/mL

CNC(=O)c1c(I)c(NC(C)=O)c(I)c(NC(=O)[C@H](O)[C@@H](O)[C@H](O)[C@H](O)CO)c1I [Example VI, 3-acetamido-5-D-gluconamido-2,4,6-triiodo-N-methylbenzamide]
LD50 Value Intracerebral (Mice) (Swiss Albino mice [1]; [10]): ~ 2,000 mg. I/kg. body wt.
kidney and ureter visualization (dog [6]; 190 mg. I/kg., one minute after injection): gave a kidney shadow with partial visualization of the ureters
LD50 Value I.V. (Mice) (Swiss Albino mice [3]; [12]): 11,000 mg. I/kg. body wt.
LD50 Value Intracisternal (Rats) [4]: 180 mg. I/kg. body wt.
solubility (water solubility; [11]): 86 mg/mL (≈ 113 mM)

CNC(=O)c1c(I)c(CO)c(I)c(NC(=O)[C@H](O)[C@@H](O)[C@H](O)[C@H](O)CO)c1I [Example VII, 3-D-gluconamido-5-hydroxymethyl-2,4,6-triiodo-N-methylbenzamide]
solubility (water solubility; [11]): 18.6 mg/mL (≈ 25.3 mM)

CNC(=O)c1c(I)c(NC(=O)C(=O)[C@@H](O)[C@H](O)[C@@H](O)CO)c(I)c(N(CCO)C(C)=O)c1I [Example X, 3-[N-(2-hydroxyethyl)acetamido]-2,4,6-triiodo-5-(2-keto-L-gulonamido)-N-methylbenzamide]
LD50 Value Intracerebral (Mice) (Swiss Albino mice [1]; Iodine Conc. 40%): 2,500 mg. I/kg. body wt.
urinary bladder contrast (rats; 10 and 15 minutes after dosing): showed good contrast
collecting pelvis of the right kidney filling (rats; 10 minutes): showed good filling
kidney and ureter visualization (rats; five minutes after injection): faint kidney and portions of ureters were observed
LD50 Value I.V. (Mice) (Swiss Albino mice [3]; [14]): ~ 10,500 mg. I/kg. body wt.
LD50 Value Intracisternal (Rats) ([4]; Iodine Conc. 40%): 405 mg. I/kg. body wt.
solubility on standing (water solubility; after standing several days, analytical sample): a precipitate formed after standing several days
solubility, initial (water solubility; initially): 100 % (w/v)
solubility at 504 h (water solubility; water, after 21 days): 640 mg/mL (≈ 795 mM)
solubility (water solubility; [15]): 1000 mg/mL (≈ 1240 mM)

CNC(=O)c1c(I)c(NC(=O)[C@H](O)[C@@H](O)[C@H](O)[C@H](O)CO)c(I)c(N(CCO)C(C)=O)c1I [Examples VIII and IX, 3-gluconamido-5-[N-(2-hydroxyethyl)acetamido]-2,4,6-triiodo-N-methylbenzamide]
LD50 Value Intracerebral (Mice) (Swiss Albino mice [1]; Iodine Conc. 35%): > 2,679 mg. I/kg. body wt.
LD50 Value Intracerebral (Mice) (Swiss Albino mice [1]; Iodine Conc. 42%): 2,200 mg. I/kg. body wt.
subarachnoid space filling (dogs [7]): partial filling of the cerebral subarachnoid space and good cervical and thoracic subarachnoid space filling
LD50 Value I.V. (Mice) (Swiss Albino mice [3]; Iodine Conc. 40%): 14,500 mg. I/kg. body wt.
LD50 Value I.V. (Mice) (Swiss Albino mice [3]; [14]): > 13,000 mg. I/kg. body wt.
LD50 Value Intracisternal (Rats) ([4]; Iodine Conc. 35%): > 505 mg. I/kg. body wt.
LD50 Value Intracisternal (Rats) ([4]; Iodine Conc. 40%): 590 mg. I/kg. body wt.
filling of subarachnoid space (dogs [8]; intrathecal, 282 to 2400 mg. I/kg., extent depending on volume injected and size of animal): good filling of the subarachnoid space from the cul-de-sac to the thoracic, cervical and cisterna magna
solubility (water solubility; water, printed as slightly less than, read-out: aqueous solubility): < 1000 mg/mL

CNC(=O)c1c(I)c(NC(=O)[C@H](O)[C@@H](O)[C@H](O)[C@H](O)CO)c(I)c(NC(=O)[C@H](O)[C@@H](O)[C@H](O)[C@H](O)CO)c1I [Examples XI and XII, 3,5-bis-D-gluconamido-2,4,6-triiodo-N-methylbenzamide]
LD50 Value Intracerebral (Mice) (Swiss Albino mice [1]; [13]): 1,330 mg. I/kg. body wt.
LD50 Value I.V. (Mice) (Swiss Albino mice [3]; [14]): 20,500 mg. I/kg. body wt.
radiographs, definition of lumbar and sacral spinal spaces (dogs [9]): the lumbar and sacral spinal spaces were well defined
LD50 Value Intracisternal (Rats) [4]: > 560 mg. I/kg. body wt.
radiographs, filling (dogs [8]; intrathecal injection, 70 mg. I/kg.): fair filling with some degree of scalloping
turbidity of solution (water solubility; 15% w/v solution, seeded and stirred at room temperature): turbidity developed within two hours
solubility thermodynamic (water solubility; water, 15% w/v solution seeded, stirred at room temperature, filtered, filtrate aliquot evaporated to constant weight at 85° C.): 120 mg/mL (≈ 133 mM)
solubility at 24 h (water solubility; water, after 24 hr., read-out: aqueous solubility after 24 hr.): < 150 mg/mL
solubility (water solubility; [15]): 1000 mg/mL (≈ 1110 mM)

CNC(=O)c1c(I)c(NC(=O)C(=O)[C@@H](O)[C@H](O)[C@@H](O)CO)c(I)c(C(=O)N(C)C)c1I [III, 2,4,6-Triiodo-5-(2-keto-L-gulonamido)-N,N,N'-trimethylisophthalamide]
solubility (water solubility; [11]): 37.5 mg/mL (≈ 48.4 mM)
